In US9593108B2, “Compounds and methods for antiviral treatment” (PTC Therapeutics, Inc., priority 2009, dated 2017):
pIC50: −log10 of the molar value.

Legend:
[1] = test system: HCV replicon RNA (GenBank Accession No. AJ242654); assay: HCV Replicon Assay (replicon RNA reduction and/or Fluc reporter signal); type: cell-based, Hepatitis C virus; conditions: Hepatitis C virus, 72 h, replicon-containing cells cultured with test compound for up to 3 days
In short: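 Bicistronic replicon-containing cells cultured with compound for up to 3 days, with interferon as positive control. Inhibition quantified by replicon RNA reduction and/or Fluc reporter signal; IC50 values generally derived from replicon RNA reduction.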

Compound | pIC50 [1] | melting point [°C]
N#Cc1c(-c2ccc(S(=O)(=O)NC(CF)CF)cc2)n(C2CCC2)c2ncc(Cl)cc12 [Cpd 8, 4-(5-chloro-3-cyano-1-cyclobutyl-1H-pyrrolo[2,3-b]pyridin-2-yl)-N-(1,3-difluoropropan-2-yl)benzenesulfonamide] | 5.70 to 6.30 | 234 to 238
COc1cnc2c(c1)c(C#N)c(-c1ccc(S(=O)(=O)NC(CF)CF)cn1)n2C1CCC1 [Cpd 9, 6-(3-cyano-1-cyclobutyl-5-methoxy-1H-pyrrolo[2,3-b]pyridin-2-yl)-N-(1,3-difluoropropan-2-yl)pyridine-3-sulfonamide] | > 6.30 | 161 to 163
N#Cc1c(-c2ccc(S(=O)(=O)NC(CF)CF)cn2)n(C2CCCC2)c2ncc(Cl)cc12 [Cpd 10, 6-(5-chloro-3-cyano-1-cyclopentyl-1H-pyrrolo[2,3-b]pyridin-2-yl)-N-(1,3-difluoropropan-2-yl)pyridine-3-sulfonamide] | > 6.30 | 208 to 209
COc1cnc2c(c1)c(C#N)c(-c1ncc(S(=O)(=O)NC(CF)CF)cn1)n2C1CCC1 [Cpd 11, 2-(3-cyano-1-cyclobutyl-5-methoxy-1H-pyrrolo[2,3-b]pyridin-2-yl)-N-(1,3-difluoropropan-2-yl)pyrimidine-5-sulfonamide] | 5.70 to 6.30 | 194 to 196
N#Cc1c(-c2ccc(S(=O)(=O)NC(CF)CF)cn2)n(C2CCC2)c2ncc(F)cc12 [Cpd 12, 6-(3-cyano-1-cyclobutyl-5-fluoro-1H-pyrrolo[2,3-b]pyridin-2-yl)-N-(1,3-difluoropropan-2-yl)pyridine-3-sulfonamide] | 5.70 to 6.30 | 155 to 157
N#Cc1c(-c2ncc(S(=O)(=O)NC(CF)CF)cn2)n(C2CCC2)c2ncc(Cl)cc12 [Cpd 13, 2-(5-chloro-3-cyano-1-cyclobutyl-1H-pyrrolo[2,3-b]pyridin-2-yl)-N-(1,3-difluoropropan-2-yl)pyrimidine-5-sulfonamide] | > 6.30 | 199 to 200
N#Cc1c(-c2ccc(S(=O)(=O)NC(CF)CF)cn2)n(C2CCC2)c2ncc(Cl)cc12 [Cpd 14, 6-(5-chloro-3-cyano-1-cyclobutyl-1H-pyrrolo[2,3-b]pyridin-2-yl)-N-(1,3-difluoropropan-2-yl)pyridine-3-sulfonamide] | > 6.30 | 176 to 178
COc1ccc2c(n1)c(C#N)c(-c1ccc(S(=O)(=O)NC(CF)CF)cn1)n2C1CCC1 [Cpd 15, 6-(3-cyano-1-cyclobutyl-5-methoxy-1H-pyrrolo[3,2-b]pyridin-2-yl)-N-(1,3-difluoropropan-2-yl)pyridine-3-sulfonamide] | 5.70 to 6.30 | 199 to 201
N#Cc1c(-c2ncc(S(=O)(=O)NC(CF)CF)cn2)n(C2CCC2)c2ncc(F)cc12 [Cpd 16, 2-(3-cyano-1-cyclobutyl-5-fluoro-1H-pyrrolo[2,3-b]pyridin-2-yl)-N-(1,3-difluoropropan-2-yl)pyrimidine-5-sulfonamide] | 5.70 to 6.30 | 204 to 206
N#Cc1c(-c2ncc(S(=O)(=O)NC(CF)CF)cn2)n(C2CCCC2)c2ncc(Cl)cc12 [Cpd 17, 2-(5-chloro-3-cyano-1-cyclopentyl-1H-pyrrolo[2,3-b]pyridin-2-yl)-N-(1,3-difluoropropan-2-yl)pyrimidine-5-sulfonamide] | 5.70 to 6.30 | 247 to 248
C[C@H](NS(=O)(=O)c1ccc(-c2c(C#N)c3cccnc3n2C2CCC2)nc1)C(F)(F)F [Cpd 18, 6-(3-cyano-1-cyclobutyl-1H-pyrrolo[2,3-b]pyridin-2-yl)-N-[(2S)-1,1,1-trifluoropropan-2-yl]pyridine-3-sulfonamide] | 5.70 to 6.30 | 183 to 185
COc1ccc2c(n1)c(C#N)c(-c1ncc(S(=O)(=O)NC(CF)CF)cn1)n2C1CCC1 [Cpd 19, 2-(3-cyano-1-cyclobutyl-5-methoxy-1H-pyrrolo[3,2-b]pyridin-2-yl)-N-(1,3-difluoropropan-2-yl)pyrimidine-5-sulfonamide] | 5.30 to 5.70 | 241 to 243
C[C@H](NS(=O)(=O)c1cnc(-c2c(C#N)c3cc(F)cnc3n2C2CCC2)nc1)C(F)(F)F [Cpd 21, 2-(3-cyano-1-cyclobutyl-5-fluoro-1H-pyrrolo[2,3-b]pyridin-2-yl)-N-[(2S)-1,1,1-trifluoropropan-2-yl]pyrimidine-5-sulfonamide] | > 6.30 | 186 to 187
COc1cnc2c(c1)c(C#N)c(-c1ncc(S(=O)(=O)N[C@@H](C)C(F)(F)F)cn1)n2C1CCC1 [Cpd 23, 2-(3-cyano-1-cyclobutyl-5-methoxy-1H-pyrrolo[2,3-b]pyridin-2-yl)-N-[(2S)-1,1,1-trifluoropropan-2-yl]pyrimidine-5-sulfonamide] | 5.70 to 6.30 | 193 to 196
C[C@H](NS(=O)(=O)c1ccc(-c2c(C#N)c3cc(Cl)cnc3n2C2CCCC2)nc1)C(F)(F)F [Cpd 24, 6-(5-chloro-3-cyano-1-cyclopentyl-1H-pyrrolo[2,3-b]pyridin-2-yl)-N-[(2S)-1,1,1-trifluoropropan-2-yl]pyridine-3-sulfonamide] | > 6.30 | 197 to 199
C[C@H](NS(=O)(=O)c1cnc(-c2c(C#N)c3cc(Cl)cnc3n2C2CCCC2)nc1)C(F)(F)F [Cpd 25, 2-(5-chloro-3-cyano-1-cyclopentyl-1H-pyrrolo[2,3-b]pyridin-2-yl)-N-[(2S)-1,1,1-trifluoropropan-2-yl]pyrimidine-5-sulfonamide] | 5.70 to 6.30 | 206 to 208
Cc1cc2c(cn1)c(C#N)c(-c1ccc(S(=O)(=O)NC(CF)CF)cn1)n2C1CCC1 [Cpd 26, 6-(3-cyano-1-cyclobutyl-6-methyl-1H-pyrrolo[3,2-c]pyridin-2-yl)-N-(1,3-difluoropropan-2-yl)pyridine-3-sulfonamide] | 5.70 to 6.30 | 216 to 218
Cc1cc2c(cn1)c(C#N)c(-c1ncc(S(=O)(=O)NC(CF)CF)cn1)n2C1CCC1 [Cpd 27, 2-(3-cyano-1-cyclobutyl-6-methyl-1H-pyrrolo[3,2-c]pyridin-2-yl)-N-(1,3-difluoropropan-2-yl)pyrimidine-5-sulfonamide] | > 6.30 | 234 to 236
Cc1cc2c(cn1)c(C#N)c(-c1ccc(S(=O)(=O)N[C@@H](C)C(F)(F)F)cn1)n2C1CCC1 [Cpd 28, 6-(3-cyano-1-cyclobutyl-6-methyl-1H-pyrrolo[3,2-c]pyridin-2-yl)-N-[(2S)-1,1,1-trifluoropropan-2-yl]pyridine-3-sulfonamide] | 5.30 to 5.70 | 189 to 191
Cc1cc2c(cn1)c(C#N)c(-c1ccc(S(=O)(=O)N[C@H](C)C(F)(F)F)cn1)n2C1CCC1 [Cpd 29, 6-(3-cyano-1-cyclobutyl-6-methyl-1H-pyrrolo[3,2-c]pyridin-2-yl)-N-[(2R)-1,1,1-trifluoropropan-2-yl]pyridine-3-sulfonamide] | > 6.30 | 176 to 178
Cc1cc2c(cn1)c(C#N)c(-c1ccc(S(=O)(=O)N[C@@H](C)C(F)(F)F)cc1)n2C1CCC1 [Cpd 30, 4-(3-cyano-1-cyclobutyl-6-methyl-1H-pyrrolo[3,2-c]pyridin-2-yl)-N-[(2S)-1,1,1-trifluoropropan-2-yl]benzenesulfonamide] | > 6.30 | 248 to 249
